According to the NIST ThermoML archive (doi:10.1016/j.jct.2015.01.004):
“And” between values parts separate entries of the source, which are not always exact repeats. Equal values may be shown once. ± gives the expanded uncertainty stated by the source.

Assay: molar heat capacity at constant pressure; xn = mol fraction of the nth substance listed
Details: 100 kPa

For `[Si]` [silicon] + [Li], the “molar heat capacity at constant pressure” value (46.23 K, Crystal of intercomponent compound 2, relaxation calorimeter, x2 = 0.804) was 2.145 ± 0.087 J/K/mol and 2.142 ± 0.087 J/K/mol, the “molar heat capacity at constant pressure” value (48.69 K, Crystal of intercomponent compound 1, relaxation calorimetry, x2 = 0.81) was 2.259 ± 0.092 J/K/mol and the “molar heat capacity at constant pressure” value (48.7 K, Crystal of intercomponent compound 2, relaxation calorimeter, x2 = 0.804) was 2.429 ± 0.099 J/K/mol. For the same compound, the “molar heat capacity at constant pressure” value (48.72 K, Crystal of intercomponent compound 2, relaxation calorimeter, x2 = 0.804) was 2.429 ± 0.099 J/K/mol, the “molar heat capacity at constant pressure” value (50 K, Crystal of intercomponent compound 1, relaxation calorimetry + DSC, x2 = 0.81) was 2.41 ± 0.1 J/K/mol and the “molar heat capacity at constant pressure” value (50 K, Crystal of intercomponent compound 2, relaxation calorimetry + DSC, x2 = 0.804) was 2.61 ± 0.11 J/K/mol. The “molar heat capacity at constant pressure” value (51.29 K, Crystal of intercomponent compound 1, relaxation calorimetry, x2 = 0.81) was 2.56 ± 0.1 J/K/mol, the “molar heat capacity at constant pressure” value (51.3 K, Crystal of intercomponent compound 2, relaxation calorimeter, x2 = 0.804) was 2.74 ± 0.11 J/K/mol and the “molar heat capacity at constant pressure” value (54.03 K, Crystal of intercomponent compound 1, relaxation calorimetry, x2 = 0.81) was 2.89 ± 0.12 J/K/mol. For the same compound, the “molar heat capacity at constant pressure” value (54.03 K, Crystal of intercomponent compound 2, relaxation calorimeter, x2 = 0.804) was 3.08 ± 0.13 J/K/mol, the “molar heat capacity at constant pressure” value (54.04 K, Crystal of intercomponent compound 2, relaxation calorimeter, x2 = 0.804) was 3.08 ± 0.13 J/K/mol and the “molar heat capacity at constant pressure” value (56.91 K, Crystal of intercomponent compound 1, relaxation calorimetry, x2 = 0.81) was 3.26 ± 0.13 J/K/mol. For the same compound, the “molar heat capacity at constant pressure” value (56.92 K, Crystal of intercomponent compound 2, relaxation calorimeter, x2 = 0.804) was 3.45 ± 0.14 J/K/mol, the “molar heat capacity at constant pressure” value (59.95 K, Crystal of intercomponent compound 1, relaxation calorimetry, x2 = 0.81) was 3.65 ± 0.15 J/K/mol and the “molar heat capacity at constant pressure” value (59.96 K, Crystal of intercomponent compound 2, relaxation calorimeter, x2 = 0.804) was 3.84 ± 0.16 J/K/mol. For the same compound, the “molar heat capacity at constant pressure” value (60 K, Crystal of intercomponent compound 1, relaxation calorimetry + DSC, x2 = 0.81) was 3.63 ± 0.15 J/K/mol, the “molar heat capacity at constant pressure” value (60 K, Crystal of intercomponent compound 2, relaxation calorimetry + DSC, x2 = 0.804) was 3.81 ± 0.15 J/K/mol and the “molar heat capacity at constant pressure” value (63.15 K, Crystal of intercomponent compound 1, relaxation calorimetry, x2 = 0.81) was 4.08 ± 0.17 J/K/mol. The “molar heat capacity at constant pressure” value (63.17 K, Crystal of intercomponent compound 2, relaxation calorimeter, x2 = 0.804) was 4.27 ± 0.17 J/K/mol, the “molar heat capacity at constant pressure” value (63.18 K, Crystal of intercomponent compound 2, relaxation calorimeter, x2 = 0.804) was 4.27 ± 0.17 J/K/mol and the “molar heat capacity at constant pressure” value (66.53 K, Crystal of intercomponent compound 1, relaxation calorimetry, x2 = 0.81) was 4.52 ± 0.18 J/K/mol. The “molar heat capacity at constant pressure” value (66.54 K, Crystal of intercomponent compound 2, relaxation calorimeter, x2 = 0.804) was 4.72 ± 0.19 J/K/mol, the “molar heat capacity at constant pressure” value (66.55 K, Crystal of intercomponent compound 2, relaxation calorimeter, x2 = 0.804) was 4.73 ± 0.19 J/K/mol and the “molar heat capacity at constant pressure” value (70 K, Crystal of intercomponent compound 1, relaxation calorimetry + DSC, x2 = 0.81) was 5.02 ± 0.2 J/K/mol. For the same compound, the “molar heat capacity at constant pressure” value (70 K, Crystal of intercomponent compound 2, relaxation calorimetry + DSC, x2 = 0.804) was 5.21 ± 0.21 J/K/mol, the “molar heat capacity at constant pressure” value (70.08 K, Crystal of intercomponent compound 1, relaxation calorimetry, x2 = 0.81) was 5.02 ± 0.2 J/K/mol and the “molar heat capacity at constant pressure” value (70.1 K, Crystal of intercomponent compound 2, relaxation calorimeter, x2 = 0.804) was 5.22 ± 0.21 J/K/mol. For the same compound, the “molar heat capacity at constant pressure” value (70.11 K, Crystal of intercomponent compound 2, relaxation calorimeter, x2 = 0.804) was 5.22 ± 0.21 J/K/mol, the “molar heat capacity at constant pressure” value (73.83 K, Crystal of intercomponent compound 1, relaxation calorimetry, x2 = 0.81) was 5.54 ± 0.23 J/K/mol and the “molar heat capacity at constant pressure” value (73.84 K, Crystal of intercomponent compound 2, relaxation calorimeter, x2 = 0.804) was 5.75 ± 0.23 J/K/mol. The “molar heat capacity at constant pressure” value (73.86 K, Crystal of intercomponent compound 2, relaxation calorimeter, x2 = 0.804) was 5.75 ± 0.23 J/K/mol, the “molar heat capacity at constant pressure” value (77.77 K, Crystal of intercomponent compound 1, relaxation calorimetry, x2 = 0.81) was 6.09 ± 0.25 J/K/mol and the “molar heat capacity at constant pressure” value (77.78 K, Crystal of intercomponent compound 2, relaxation calorimeter, x2 = 0.804) was 6.31 ± 0.26 J/K/mol. For the same compound, the “molar heat capacity at constant pressure” value (77.8 K, Crystal of intercomponent compound 2, relaxation calorimeter, x2 = 0.804) was 6.32 ± 0.26 J/K/mol, the “molar heat capacity at constant pressure” value (80 K, Crystal of intercomponent compound 1, relaxation calorimetry + DSC, x2 = 0.81) was 6.43 ± 0.26 J/K/mol and the “molar heat capacity at constant pressure” value (80 K, Crystal of intercomponent compound 2, relaxation calorimetry + DSC, x2 = 0.804) was 6.65 ± 0.27 J/K/mol. The “molar heat capacity at constant pressure” value (81.93 K, Crystal of intercomponent compound 1, relaxation calorimetry, x2 = 0.81) was 6.66 ± 0.27 J/K/mol, the “molar heat capacity at constant pressure” value (81.94 K, Crystal of intercomponent compound 2, relaxation calorimeter, x2 = 0.804) was 6.9 ± 0.28 J/K/mol and the “molar heat capacity at constant pressure” value (81.95 K, Crystal of intercomponent compound 2, relaxation calorimeter, x2 = 0.804) was 6.9 ± 0.28 J/K/mol. The “molar heat capacity at constant pressure” value (86.31 K, Crystal of intercomponent compound 1, relaxation calorimetry, x2 = 0.81) was 7.27 ± 0.3 J/K/mol, the “molar heat capacity at constant pressure” value (86.32 K, Crystal of intercomponent compound 2, relaxation calorimeter, x2 = 0.804) was 7.53 ± 0.31 J/K/mol and the “molar heat capacity at constant pressure” value (86.33 K, Crystal of intercomponent compound 2, relaxation calorimeter, x2 = 0.804) was 7.53 ± 0.31 J/K/mol. For the same compound, the “molar heat capacity at constant pressure” value (90 K, Crystal of intercomponent compound 1, relaxation calorimetry + DSC, x2 = 0.81) was 7.82 ± 0.32 J/K/mol, the “molar heat capacity at constant pressure” value (90 K, Crystal of intercomponent compound 2, relaxation calorimetry + DSC, x2 = 0.804) was 8.08 ± 0.33 J/K/mol and the “molar heat capacity at constant pressure” value (90.93 K, Crystal of intercomponent compound 1, relaxation calorimetry, x2 = 0.81) was 7.89 ± 0.32 J/K/mol. The “molar heat capacity at constant pressure” value (90.93 K, Crystal of intercomponent compound 2, relaxation calorimeter, x2 = 0.804) was 8.14 ± 0.33 J/K/mol, the “molar heat capacity at constant pressure” value (90.95 K, Crystal of intercomponent compound 2, relaxation calorimeter, x2 = 0.804) was 8.17 ± 0.33 J/K/mol and the “molar heat capacity at constant pressure” value (91 K, Crystal of intercomponent compound 2, relaxation calorimeter, x2 = 0.804) was 8.16 ± 0.33 J/K/mol. For the same compound, the “molar heat capacity at constant pressure” value (91.01 K, Crystal of intercomponent compound 1, relaxation calorimetry, x2 = 0.81) was 7.88 ± 0.32 J/K/mol, the “molar heat capacity at constant pressure” value (91.02 K, Crystal of intercomponent compound 2, relaxation calorimeter, x2 = 0.804) was 8.18 ± 0.33 J/K/mol and the “molar heat capacity at constant pressure” value (95.01 K, Crystal of intercomponent compound 1, relaxation calorimetry, x2 = 0.81) was 8.41 ± 0.34 J/K/mol. The “molar heat capacity at constant pressure” value (95.02 K, Crystal of intercomponent compound 2, relaxation calorimeter, x2 = 0.804) was 8.71 ± 0.35 J/K/mol, the “molar heat capacity at constant pressure” value (95.04 K, Crystal of intercomponent compound 2, relaxation calorimeter, x2 = 0.804) was 8.73 ± 0.35 J/K/mol and the “molar heat capacity at constant pressure” value (99.06 K, Crystal of intercomponent compound 2, relaxation calorimeter, x2 = 0.804) was 9.29 ± 0.38 J/K/mol. The “molar heat capacity at constant pressure” value (99.07 K, Crystal of intercomponent compound 1, relaxation calorimetry, x2 = 0.81) was 8.94 ± 0.36 J/K/mol, the “molar heat capacity at constant pressure” value (99.08 K, Crystal of intercomponent compound 2, relaxation calorimeter, x2 = 0.804) was 9.32 ± 0.38 J/K/mol and the “molar heat capacity at constant pressure” value (100 K, Crystal of intercomponent compound 1, relaxation calorimetry + DSC, x2 = 0.81) was 9.14 ± 0.37 J/K/mol. The “molar heat capacity at constant pressure” value (100 K, Crystal of intercomponent compound 2, relaxation calorimetry + DSC, x2 = 0.804) was 9.44 ± 0.38 J/K/mol, the “molar heat capacity at constant pressure” value (103.16 K, Crystal of intercomponent compound 1, relaxation calorimetry, x2 = 0.81) was 9.52 ± 0.39 J/K/mol and the “molar heat capacity at constant pressure” value (103.16 K, Crystal of intercomponent compound 2, relaxation calorimeter, x2 = 0.804) was 9.83 ± 0.4 J/K/mol. For the same compound, the “molar heat capacity at constant pressure” value (103.18 K, Crystal of intercomponent compound 2, relaxation calorimeter, x2 = 0.804) was 9.87 ± 0.4 J/K/mol, the “molar heat capacity at constant pressure” value (107.24 K, Crystal of intercomponent compound 1, relaxation calorimetry, x2 = 0.81) was 10.04 ± 0.41 J/K/mol and the “molar heat capacity at constant pressure” value (107.25 K, Crystal of intercomponent compound 2, relaxation calorimeter, x2 = 0.804) was 10.37 ± 0.42 J/K/mol. The “molar heat capacity at constant pressure” value (107.26 K, Crystal of intercomponent compound 2, relaxation calorimeter, x2 = 0.804) was 10.4 ± 0.42 J/K/mol, the “molar heat capacity at constant pressure” value (110 K, Crystal of intercomponent compound 1, relaxation calorimetry + DSC, x2 = 0.81) was 10.39 ± 0.42 J/K/mol and the “molar heat capacity at constant pressure” value (110 K, Crystal of intercomponent compound 2, relaxation calorimetry + DSC, x2 = 0.804) was 10.73 ± 0.44 J/K/mol. For the same compound, the “molar heat capacity at constant pressure” value (111.29 K, Crystal of intercomponent compound 1, relaxation calorimetry, x2 = 0.81) was 10.53 ± 0.43 J/K/mol, the “molar heat capacity at constant pressure” value (111.29 K, Crystal of intercomponent compound 2, relaxation calorimeter, x2 = 0.804) was 10.88 ± 0.44 J/K/mol and the “molar heat capacity at constant pressure” value (111.31 K, Crystal of intercomponent compound 2, relaxation calorimeter, x2 = 0.804) was 10.88 ± 0.44 J/K/mol. The “molar heat capacity at constant pressure” value (115.39 K, Crystal of intercomponent compound 1, relaxation calorimetry, x2 = 0.81) was 11.05 ± 0.45 J/K/mol, the “molar heat capacity at constant pressure” value (115.4 K, Crystal of intercomponent compound 2, relaxation calorimeter, x2 = 0.804) was 11.39 ± 0.46 J/K/mol and the “molar heat capacity at constant pressure” value (115.41 K, Crystal of intercomponent compound 2, relaxation calorimeter, x2 = 0.804) was 11.41 ± 0.46 J/K/mol. For the same compound, the “molar heat capacity at constant pressure” value (119.47 K, Crystal of intercomponent compound 1, relaxation calorimetry, x2 = 0.81) was 11.55 ± 0.47 J/K/mol, the “molar heat capacity at constant pressure” value (119.47 K, Crystal of intercomponent compound 2, relaxation calorimeter, x2 = 0.804) was 11.87 ± 0.48 J/K/mol and the “molar heat capacity at constant pressure” value (119.49 K, Crystal of intercomponent compound 2, relaxation calorimeter, x2 = 0.804) was 11.92 ± 0.48 J/K/mol. For the same compound, the “molar heat capacity at constant pressure” value (120 K, Crystal of intercomponent compound 1, relaxation calorimetry + DSC, x2 = 0.81) was 11.56 ± 0.47 J/K/mol, the “molar heat capacity at constant pressure” value (120 K, Crystal of intercomponent compound 2, relaxation calorimetry + DSC, x2 = 0.804) was 11.93 ± 0.48 J/K/mol and the “molar heat capacity at constant pressure” value (123.51 K, Crystal of intercomponent compound 1, relaxation calorimetry, x2 = 0.81) was 12 ± 0.49 J/K/mol. The “molar heat capacity at constant pressure” value (123.51 K, Crystal of intercomponent compound 2, relaxation calorimeter, x2 = 0.804) was 12.35 ± 0.5 J/K/mol, the “molar heat capacity at constant pressure” value (123.53 K, Crystal of intercomponent compound 2, relaxation calorimeter, x2 = 0.804) was 12.4 ± 0.5 J/K/mol and the “molar heat capacity at constant pressure” value (127.61 K, Crystal of intercomponent compound 1, relaxation calorimetry, x2 = 0.81) was 12.47 ± 0.51 J/K/mol.
